Data as given in patent publication US9974306B2, “Herbicidal combinations for tolerant soybean cultures” (priority 2012, dated 2018).

Tests used:
[1] = tested on: SORHA; assay: Post-emergence greenhouse treatment, visual rating of herbicidal effect; format: in vivo, Sorghum halepense
Experimental: (§1) Seeds of grass and broadleaf weeds were sown in pots (diameter: 8 cm) filled with a sandy loam soil. For the herbicide post-emergent treatment, the weeds were grown under optimal conditions up to a growth stage of BBCH 11 (1-2 leaf stage) to 14 (3-4 leaf stage) depending on species. The following weeds were used:
(§2) The applications were performed by post emergence treatments on the planted pots using a spray volume of 300 L water per hectare. The herbicides were applied alone and in combination as in the tables below.
(§3) The trial was conducted in the greenhouse ensuring optimal growing conditions.
(§4) The herbicidal effects were assessed 14 and 24 days following application by visual ratings comparing treated and untreated plants (0%=no effect to 100%=complete die-off).
(§5) The visual ratings are used to calculate interactions between treatments alone and combination treatments according to S. R. Colby, Weeds 15, pages 20 to 22 (1967).

[2] = tested on: GLXMA Protina; assay: Post-emergence greenhouse treatment, visual rating of effect on conventional soybean PROTINA; format: in vivo
Experimental: (§6) The soybeans were grown under the same conditions as described above. The following three varieties were used in the tests:
(§7) 1) W336—Transgenic soybean plants comprising a chimeric gene encoding a W336 mutant HPPD protein of Pseudomonas fluorescens (U.S. Pat. No. 6,245,968) fused to the optimized transit peptide for chloroplast targeting (U.S. Pat. No. 5,510,471), and under the control of the 35S CaMV promoter (Odell et al., 1985, Nature 313: 810-812) fused to the 5′ enhancer sequence of TEV (Carrington and Freed, 1990, J. Virol. 64: 1590-1597), with as 3′ transcript termination and polyadenylation region that of the CaMV 35S gene (Sanfacon et al., 1991, Genes & Development 5:141-149), abbreviated as “W336 soybean plants” herein. 2) MERLIN—conventional 3) PROTINA—conventional
(§8) Two sets of soybeans reaching different growth stages at application time were prepared: one up to growth stage BBCH 11 (1-2 leaf stage) and the other up to BBCH 13 (3-4 leaf stage). Both soybean sets were treated at the same time (together with the weeds) but they were evaluated separately.
as §2, §3, §4, §5

[3] = tested on: PHBPU; assay: Post-emergence greenhouse treatment, visual rating of herbicidal effect; format: in vivo, Pharbitis purpurea
Experimental: as §1, §2, §3, §4, §5

[4] = tested on: SETVI; assay: as above; format: in vivo, Setaria viridis; conditions: 1-2 leaf; 24 d; 20 g a.i./ha
Experimental: as §1, §2, §3, §4, §5

[5] = tested on: BRAPP; assay: as above; format: in vivo, Brachiaria platyphylla; conditions: 3-4 leaf; 14 d; 10 g a.i./ha
Experimental: as §1, §2, §3, §4, §5

[6] = tested on: GLXMA GM_W336; assay: Post-emergence greenhouse treatment, visual rating of effect on W336 transgenic (HPPD inhibitor tolerant) soybean; format: in vivo
Experimental: as §6, §7, §8, §2, §3, §4, §5

[7] = tested on: SETFA; assay: Post-emergence greenhouse treatment, visual rating of herbicidal effect; format: in vivo, Setaria faberi; conditions: 1-2 leaf; 24 d; 1.5 g a.i./ha
Experimental: as §1, §2, §3, §4, §5

[8] = tested on: GLXMA Merlin; assay: Post-emergence greenhouse treatment, visual rating of effect on conventional soybean MERLIN; format: in vivo; conditions: 1-2 leaf; 24 d; 1.5 g a.i./ha
Experimental: as §6, §7, §8, §2, §3, §4, §5

[9] = tested on: BIDPI; assay: Post-emergence greenhouse treatment, visual rating of herbicidal effect; format: in vivo, Bidens pilosa; conditions: 3-4 leaf, 3 g a.i./ha
Experimental: as §1, §2, §3, §4, §5

Row | Compound | Effect ([1]; 1-2 leaf, 24 d, 20 g a.i./ha) [%] | Effect ([2]; 1-2 leaf, 24 d, 20 g a.i./ha) [%] | Effect ([2]; 3-4 leaf, 14 d, 10 g a.i./ha) [%] | Effect ([3]; 3-4 leaf, 14 d, 10 g a.i./ha) [%] | Effect [4] [%] | Effect [5] [%] | Effect ([6]; 1-2 leaf, 24 d, 20 g a.i./ha) [%] | Effect ([6]; 3-4 leaf, 14 d, 10 g a.i./ha) [%] | Effect ([1]; 3-4 leaf, 14 d, 3 g a.i./ha) [%] | Effect ([1]; 3-4 leaf, 24 d, 3 g a.i./ha) [%] | Effect [7] [%] | Effect ([2]; 3-4 leaf, 14 d, 3 g a.i./ha) [%] | Effect ([2]; 3-4 leaf, 24 d, 3 g a.i./ha) [%] | Effect ([3]; 1-2 leaf, 24 d, 1.5 g a.i./ha) [%] | Effect [8] [%] | Effect ([9]; 14 d) [%] | Effect ([9]; 24 d) [%] | Effect ([6]; 1-2 leaf, 24 d, 1.5 g a.i./ha) [%] | Effect ([6]; 3-4 leaf, 14 d, 3 g a.i./ha) [%] | Effect ([6]; 3-4 leaf, 24 d, 3 g a.i./ha) [%]
1 | CS(=O)(=O)c1cc(C(F)(F)F)ccc1C(=O)c1cnoc1C1CC1 [(A4), (5-cyclopropyl-1,2-oxazol-4-yl)(α,α,α-trifluoro-2-mesyl-p-tolyl)methanone] | 40 | 75 | 35 | 40 | 10 | 15 | 10 | 10 | – | – | – | – | – | – | – | – | – | – | – | –
2 | Cc1c(C(=O)c2cnn(C)c2O)ccc(S(C)(=O)=O)c1C1=NOCC1 [(A5), [3-(4,5-dihydro-1,2-oxazol-3-yl)-4-mesyl-o-tolyl](5-hydroxy-1-methylpyrazol-4-yl)methanone] | – | – | – | – | – | – | – | – | 15 | 10 | 30 | 50 | 50 | 30 | 55 | 25 | 10 | 15 | 30 | 30
